Experimental data published in US20240417359A1, “PRECURSORS OF PHENOLIC FRAGRANT COMPOUNDS” (GIVAUDAN SA, priority 2021, published 2024).
“Also recorded” adds a separate entry of the source.

What was measured:
[1] = Washtest with liquid detergent and sensory evaluation of fabric by expert panel; details: for odour released on dry fabric: comparison of double bond position Δ-2, Δ-3, Δ-4
Procedure: The wet and line-dried fabric (1 and 4 days) was assessed by a panel of 4-6 experts with regard to odour intensity and quality. The odour intensity was recorded on an intensity scale of 0 (odourless) to 5 (extremely strong).
The odour intensity was recorded on an intensity scale of 0 (odorless) to 5 (extremely strong).
Heavy duty liquid detergent samples were prepared and used in washtests and subsequent sensory evaluation of the washed and dried fabric as described in Example 60a and c. The odour intensity was recorded on an intensity scale of 0 (odourless) to 5 (extremely strong).

[2] = as above; details: Table 2; dry fabric 3 days; scale 0 to 5
[3] = Odour description on paper blotter; details: 1% solution in EtOH on paper blotter, 24 h
[4] = Biodegradability, manometric respirometry test (OECD 301F); details: pass level 60% oxygen consumption of theory
Description: The results of the biodegradability assessment by the manometric respirometry test (OECD guideline for the testing of materials No. 301F, Paris 1992) are summarized in Table 6.
A compound can be classified biodegradable, if it reaches the pass level of 60% oxygen consumption of theory required for complete mineralization.
It is readily biodegradable, if the pass level is reached within 10 days within the 28-day period of the test. The 10-day window begins when the degree of biodegradation has reached 10%. If the pass level is obtained after 28-day period of the test, the compound can be classified as inherently biodegradable.

[5] = Colour stability in liquid detergent base (visual inspection); format: physicochemical; details: 0.2% by weight in unperfumed liquid detergent base, compared to unperfumed base
Description: The above prepared samples were visually inspected in comparison to an unperfumed base sample (sample C).

[6] = Application in shampoo base: sensory evaluation of washed hair swatches by expert panel; set-up: species or system human; details: Table 4; for odour on dry hair / odour intensity, wet: 0.2% by weight in shampoo base; for odour intensity, wet: wet hair swatch, scale 0 (odourless) to 5 (extremely strong); for odour intensity, 1 day: dried hair swatch 1 day; for odour intensity, 1 day / odour intensity, 3 days: scale 0 to 5; for odour intensity, 3 days: dried hair swatch 3 days
Procedure: Odour-neutral human hair swatches were wetted with warm tap water and lathered delicately with 2 mL of the above hair shampoo samples for 30 sec by hand wearing gloves. The lathered hair swatches were left in a plastic bowl for 2 min, then rinsed under running tap water for 20 sec. After removing excess water by squeezing the hair swatches between two fingers, they were left to dry in open air. The wet and dried hair swatches (1 and 3 days) were assessed by a panel of 4-6 experts with regard to odour intensity and quality. The odour intensity was recorded on an intensity scale of 0 (odourless) to 5 (extremely strong).

[7] = Table 2, dry fabric 1 day, scale 0 to 5
[8] = Table 2, liquid detergent washtest
[9] = Table 2, liquid detergent washtest, wet fabric, scale 0 (odorless) to 5 (extremely strong)
[10] = Table 3, dry fabric 1 day, scale 0 to 5
[11] = Table 3, dry fabric 4 days, scale 0 to 5
[12] = Table 3, heavy duty liquid detergent washtest, wet fabric, scale 0 to 5

Row | Biodegradation in % [4] [%] | SMILES | Odour description [3] | odour intensity, 1 day [1, 10] | odour intensity, 4 days [1, 11] | odour intensity, wet [1, 12] | odour intensity, wet [6] | odour intensity, 1 day [6] | odour intensity, 3 days [6] | further results
1 | – | CC/C=C\C/C=C\COc1ccc(C=O)cc1OCC [3-ethoxy-4-(((2Z,5Z)-octa-2,5-dien-1-yl)oxy)benzaldehyde, reference compound] | – | – | – | – | – | – | – | odour intensity, 1 day [1, 7]: 2.8; odour on dry fabric [1, 8]: metallic; odour intensity, wet [1, 9]: 0.9; odour released on dry fabric [1]: weak and unpleasant odours; odour intensity, 3 days [2]: 2.3
2 | – | CC/C=C\CCC(CCCCCCCCC)Oc1ccc(C=O)cc1OCC (stereo not drawn) [(Z)-3-ethoxy-4-(hexadec-3-en-7-yloxy)benzaldehyde, reference compound] | – | – | – | – | – | – | – | odour intensity, 1 day [1, 7]: 1.2; odour on dry fabric [1, 8]: rubbery, metallic; odour intensity, wet [1, 9]: 1.1; odour released on dry fabric [1]: weak and unpleasant odours; odour intensity, 3 days [2]: 1.6
3 | 90 | CCCCCC[C@@H](C/C=C\CCCCCCCC(=O)OC)Oc1ccc(C=O)cc1OCC [Example 1, methyl (S,Z)-12-(2-ethoxy-4-formylphenoxy)octadec-9-enoate] | powdery, vanillin, green, fatty | – | – | – | – | – | – | –
4 | 88 | CCCCCC[C@@H](C/C=C\CCCCCCCC(=O)OC)Oc1ccc(CCC(C)=O)cc1 [Example 2, methyl (S,Z)-12-(4-(3-oxobutyl)phenoxy)octadec-9-enoate] | powdery fruity raspberry, green, fatty | – | – | – | – | – | – | –
5 | 86 | CC/C=C\CC(CCCCC)Oc1ccc(C=O)cc1OCC (stereo not drawn) [Example 17, (Z)-3-ethoxy-4-(undec-3-en-6-yloxy)benzaldehyde] | powdery (dry, vanilla, chocolate) | – | – | – | – | – | – | –
6 | – | CC/C=C\CC(CCCCCCCCC)Oc1ccc(C=O)cc1OCC (stereo not drawn) [Example 28, (Z)-3-ethoxy-4-(Pentadec-3-en-6-yloxy)benzaldehyde] | powdery, creamy, vanilla, aldehydic, mandarin | 2.3 | 2.6 | 2.1 | 1.7 | 3.5 | 4.4 | Colour of liquid detergent sample (visual inspection) [5]: optically identical to the unperfumed base; odour intensity, 1 day ([1]; Table 1, line-dried fabric 1 day, scale 0 to 5): 2.3; odour intensity, 4 days ([1]; Table 1, line-dried fabric 4 days, scale 0 to 5): 2.6; odour intensity, wet ([1]; Table 1, liquid detergent 0.2% by weight, 40° C. machine wash, cotton/elastan fabric, wet, scale 0 (odourless) to 5 (extremely strong)): 2.1; odour released from washed fabric ([1]; liquid detergent washtest, dry fabric): mandarin, vanilla and powdery fragrance; odour on dry hair [6]: mandarin, vanilla
7 | 70 | CC/C=C/CC(CCCCCCCCC)Oc1ccc(C=O)cc1OCC (stereo not drawn) [Example 29, (E)-3-ethoxy-4-(pentadec-3-en-6-yloxy)benzaldehyde] | powdery, creamy, vanilla, aldehydic, mandarin | – | – | – | – | – | – | –
8 | – | CC/C=C\C/C=C\CCOc1ccc(C=O)cc1OCC [Example 30, 3-ethoxy-4-(((3Z,6Z)-nona-3,6-dien-1-yl)oxy)benzaldehyde] | green, leaf aldehyde, green apple, powdery, vanilla | 3.4 | 4.1 | 2.7 | – | – | – | odour intensity, 1 day [1, 7]: 3.4; odour on dry fabric [1, 8]: vanilla, green; odour intensity, wet [1, 9]: 2.7; odour released on dry fabric [1]: strong and pleasant odour; odour intensity, 3 days [2]: 4.1
9 | – | CCCCCC(C)=CCCOc1ccc(C=O)cc1OCC [Example 42, 3-ethoxy-4-((4-methylnon-3-en-1-yl)oxy)benzaldehyde] | powdery, vanilla, sweet, sugary | 2.8 | 3.3 | 2.1 | 1.0 | 1.4 | 1.9 | odour on dry hair [6]: vanilla, sweet
10 | – | CCOc1cc(C=O)ccc1OCCC=C(C)CCc1ccccc1 [Example 47, 3-ethoxy-4-((4-methyl-6-phenylhex-3-en-1-yl)oxy)benzaldehyde] | sweet, vanilla, ice cream, powdery, fruity, raspberry, sorbet | 2.7 | 3.0 | 1.5 | 1.4 | 2.7 | 2.1 | –
11 | – | CCCCCCCCC(C)=CCCOc1ccc(C=O)cc1OCC [Example 90, 3-ethoxy-4-((4-methyldodec-3-en-1-yl)oxy)benzaldehyde] | powdery, vanilla, creamy, slightly green, sesame seed, sharp, technical | – | – | – | 1.1 | 2.7 | 2.9 | –
12 | – | CCOc1cc(C=O)ccc1O [ethylvanillin, 3-ethoxy-4-hydroxybenzaldehyde] | – | – | – | – | – | – | – | Colour of liquid detergent sample (visual inspection) [5]: strong purple coloration; also recorded: colors the base
